Assay results reported in patent US12441768B2, “Compositions and methods for treating endometriosis” (EndoMet Biosciences, Inc., priority 2018, dated 2025).
Where a SMILES comes first, the peptide text is derived from it. [ ]: non-standard residue; d: D form. The star is where a group is joined. ξ: configuration not given here. NMeW = CN[C@@H](Cc1c[nH]c2ccccc12)C(=O)O; Stearoyl = CCCCCCCCCCCCCCCCCC(=O)*; ξαMeV = CC(C)C(C)(N)C(=O)O; ξαMeS = CC(N)(CO)C(=O)O; GABA = NCCCC(=O)O; βAla = NCCC(=O)O

Assays:
[1] = target: Wnt-responsive promoter (TCF/LEF); experiment: Wnt-dependent luciferase reporter assay; type: cell-based, murine
Outline: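 Murine 3T3 fibroblasts carrying a TCF/LEF-driven luciferase reporter, stimulated with Wnt3a in the presence of increasing peptide concentrations or vehicle. Luminescence inhibition gave EC50 values in uM.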

[2] = test system: colon cancer cell line (SW480); type: cell-based; settings: for Cell growth / viability: SW480, peptide added daily, 7 days
Experimental: Peptides inhibiting β-catenin cause decreased cell viability in a colon cancer cell line (SW480) and endometriosis lesions excised from a disease animal model. Peptides from libraries described herein are characterized in their effect on cell viability, as measured using a luminescent cell viability assay (Cell Titer-Glo®, Promega, Madison, WI) and expressed as IC50 in Table 5. Peptide inhibitors were tested for their ability to inhibit cellular proliferation across 2 different β-catenin expressing pathogenic cell lines: a colon cancer cell line (SW480) and/or mouse EMS lesion cells derived from mouse model of disease. Both cells lines are naturally known to express high levels of β-catenin. Cell lines were incubated with varying concentrations of peptide concentration and assessed for viability after day 5 and 7 days. The CellTiter-Glo® Luminescent Cell Viability Assay (Promega) is used to detect viable cells. IC50 values are graphed and calculated using Prism software (GraphPad) based on the cell viability readouts. IC50 is used to assess inhibition of cell proliferation by peptide concentration and is used to calculate the inhibitory effect of each peptide across each line. The results are used to assess the therapeutic potency of the peptides. In the SW480 cell line, peptide inhibitors from Family 1 (SEQ ID NO:264) and Family 2 (SEQ ID NO:396) were added daily to the cell growth medium. After 7 days, cell viability was assessed with the Cell-Titer Glo kit (Promega, Madison, WI). […] IC50 was calculated for peptides based on the concentration at which 50% viability was observed (Table 5).

β-catenin = target: T1, β-catenin (Homo sapiens, UniProt P35222); experiment: KD50 measurement using competitive fluorescence polarization (FP) with labelled TCF4; type: binding; settings: fluorescence polarization, β-catenin; for Kd: read-out: β-Cat FP KD
T1 sequence (P35222 1-781): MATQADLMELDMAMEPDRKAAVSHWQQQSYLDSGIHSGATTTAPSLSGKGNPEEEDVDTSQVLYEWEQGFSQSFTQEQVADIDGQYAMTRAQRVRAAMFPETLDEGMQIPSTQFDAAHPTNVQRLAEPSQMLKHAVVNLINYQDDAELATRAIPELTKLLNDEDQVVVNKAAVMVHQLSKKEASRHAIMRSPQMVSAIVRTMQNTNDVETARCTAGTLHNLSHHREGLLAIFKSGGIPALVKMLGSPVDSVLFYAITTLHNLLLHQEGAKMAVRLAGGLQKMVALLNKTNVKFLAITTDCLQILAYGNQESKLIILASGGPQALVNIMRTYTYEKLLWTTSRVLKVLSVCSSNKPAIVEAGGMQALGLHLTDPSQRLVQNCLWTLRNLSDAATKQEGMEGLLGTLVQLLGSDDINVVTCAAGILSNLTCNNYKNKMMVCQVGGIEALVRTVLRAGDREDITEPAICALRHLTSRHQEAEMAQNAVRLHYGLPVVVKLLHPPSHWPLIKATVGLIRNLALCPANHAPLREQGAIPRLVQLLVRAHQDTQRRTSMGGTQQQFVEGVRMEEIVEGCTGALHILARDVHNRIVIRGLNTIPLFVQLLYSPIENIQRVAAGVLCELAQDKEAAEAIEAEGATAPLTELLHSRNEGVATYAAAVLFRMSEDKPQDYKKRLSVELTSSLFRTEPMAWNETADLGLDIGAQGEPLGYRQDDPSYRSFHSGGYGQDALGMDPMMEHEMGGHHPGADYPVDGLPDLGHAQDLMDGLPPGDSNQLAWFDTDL
Outline: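 First, β-catenin at 100 nM is mixed with 5 nM labelled TCF4 at room temperature. Next, compound is added across serial dilutions (10 nM to 30 uM). Finally, fluorescence polarization is measured (ex 470 nm, em 520 nm); experiments are done three times.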

in vitro = settings: % Viability non-Wnt responsive cells

| EC50 [1] [µM] | IC50 [2] [µM] | β-Cat FP Hill slope (β-catenin) | Kd (β-catenin) [µM] | Structure (SMILES) | Cell growth / viability [2] | viability (in vitro) [%] |
| --- | --- | --- | --- | --- | --- | --- |
| 7.5 to 15 | 4.7 |  |  | CCCCCCCCCCCCCCCCCC(=O)N[C@@H](Cc1c[nH]c2ccccc12)C(=O)N(C)[C@@H](Cc1c[nH]c2ccccc12)C(=O)N[C@@H](CCC(=O)O)C(=O)NC(C)(CO)C(=O)N[C@H](C(=O)N[C@@H](CC(C)C)C(=O)N[C@@H](CC(=O)O)C(=O)N[C@@H](CCC(=O)O)C(=O)N[C@@H](Cc1c[nH]cn1)C(=O)NC(C)(C(=O)N[C@@H](CCC(N)=O)C(=O)N[C@@H](CCCNC(=N)N)C(=O)N[C@H](C(=O)N[C@@H](Cc1c[nH]c2ccccc12)C(=O)NCC(=O)O)C(C)C)C(C)C)[C@@H](C)CC (some centres unmarked) [compound 390] (Stearoyl-W[NMeW]E[ξαMeS]ILDEH[ξαMeV]QRVWG-OH) |  |  |
| < 7.5 | 4.8 |  |  | CCCCCCCCCCCCCCCCCC(=O)NCCC(=O)N[C@@H](Cc1c[nH]c2ccccc12)C(=O)N(C)[C@@H](Cc1c[nH]c2ccccc12)C(=O)N[C@@H](CCC(=O)O)C(=O)NC(C)(CO)C(=O)N[C@H](C(=O)N[C@@H](CC(C)C)C(=O)N[C@@H](CC(=O)O)C(=O)N[C@@H](CCC(=O)O)C(=O)N[C@@H](Cc1c[nH]cn1)C(=O)NC(C)(C(=O)N[C@@H](CCC(N)=O)C(=O)N[C@@H](CCCNC(=N)N)C(=O)N[C@H](C(=O)N[C@@H](Cc1c[nH]c2ccccc12)C(=O)NCC(=O)O)C(C)C)C(C)C)[C@@H](C)CC (some centres unmarked) [compound 391] ({Stearoyl-βAla}-W[NMeW]E[ξαMeS]ILDEH[ξαMeV]QRVWG-OH) |  |  |
|  |  |  |  | CCCCCCCCCCCCCCCC(=O)N[C@@H](Cc1c[nH]c2ccccc12)C(=O)N(C)[C@@H](Cc1c[nH]c2ccccc12)C(=O)N[C@@H](CCC(=O)O)C(=O)NC(C)(CO)C(=O)N[C@H](C(=O)N[C@@H](CC(C)C)C(=O)N[C@@H](CC(=O)O)C(=O)N[C@@H](CCC(=O)O)C(=O)N[C@@H](Cc1c[nH]cn1)C(=O)NC(C)(C(=O)N[C@@H](CCC(N)=O)C(=O)N[C@@H](CCCNC(=N)N)C(=O)N[C@H](C(=O)N[C@@H](Cc1c[nH]c2ccccc12)C(=O)NCC(=O)O)C(C)C)C(C)C)[C@@H](C)CC (single isomer, unassigned) [SEQ ID NO: 396, Palmitoyl-W-NmeW-E-aMeS-ILDEH-aMeV-QRVWG-COOH] | inhibited cell growth |  |
|  | 18.5 | 0.8 | < 0.4 | CCCCCCCCCCCCCC(=O)NCC(=O)N[C@@H](Cc1c[nH]c2ccccc12)C(=O)N(C)[C@@H](Cc1c[nH]c2ccccc12)C(=O)N[C@@H](CCC(=O)O)C(=O)N[C@@H](CO)C(=O)N[C@H](C(=O)N[C@@H](CC(C)C)C(=O)N[C@@H](CC(=O)O)C(=O)N[C@@H](CCC(=O)O)C(=O)N[C@@H](Cc1c[nH]cn1)C(=O)N[C@H](C(=O)N[C@@H](CCC(N)=O)C(=O)N[C@@H](CCCNC(=N)N)C(=O)N[C@H](C(=O)N[C@@H](Cc1c[nH]c2ccccc12)C(=O)NCC(=O)O)C(C)C)C(C)C)[C@@H](C)CC [compound 1] (HELM PEPTIDE1{[CCCCCCCCCCCCCC(=O)[*:2]].G.W.[meW].E.S.I.L.D.E.H.V.Q.R.V.W.G}$$$$V2.0) |  |  |
| > 30 |  | 1.72 | 0.4 to 1 | CC[C@H](C)[C@@H]1NC(=O)[C@H](Cc2c[nH]cn2)NC(=O)[C@H](CCC(=O)O)NC(=O)[C@H](Cc2ccccc2)NC(=O)[C@H](Cc2c[nH]c3ccccc23)NC(=O)[C@H](CO)NC(=O)[C@H]([C@@H](C)CC)NC(=O)[C@H](C)N(C)C(=O)[C@H](CC(C)C)NC(=O)[C@@H]2CCCN2C(=O)[C@H](CCSC)NC(=O)[C@@H](N)CCCCNC(=O)CNC1=O [compound 29] (HELM PEPTIDE1{K.M.P.L.[meA].I.S.W.F.E.H.I.G}$PEPTIDE1,PEPTIDE1,1:R3-13:R2$$$V2.0; bridges inferred) |  | 107 |
| 7.5 to 15 | 6.8 |  |  | CCCCCCCCCCCCCCCCCC(=O)NCCCC(=O)N[C@@H](Cc1c[nH]c2ccccc12)C(=O)N(C)[C@@H](Cc1c[nH]c2ccccc12)C(=O)N[C@@H](CCC(=O)O)C(=O)NC(C)(CO)C(=O)N[C@H](C(=O)N[C@@H](CC(C)C)C(=O)N[C@@H](CC(=O)O)C(=O)N[C@@H](CCC(=O)O)C(=O)N[C@@H](Cc1c[nH]cn1)C(=O)NC(C)(C(=O)N[C@@H](CCC(N)=O)C(=O)N[C@@H](CCCNC(=N)N)C(=O)N[C@H](C(=O)N[C@@H](Cc1c[nH]c2ccccc12)C(=O)O)C(C)C)C(C)C)[C@@H](C)CC (some centres unmarked) [compound 395] ({Stearoyl-GABA}-W[NMeW]E[ξαMeS]ILDEH[ξαMeV]QRVW-OH) |  |  |
| < 7.5 |  |  | > 30 | CC[C@H](C)[C@H](NC(=O)[C@H](CC(C)C)NC(=O)[C@H](Cc1ccccc1)NC(=O)[C@H](Cc1c[nH]c2ccccc12)NC(=O)[C@H](CCSC)NC(=O)[C@H](CCCNC(=N)N)NC(=O)[C@H](CO)NC(=O)[C@@H](N)CCSC)C(=O)N[C@@H](CO)C(=O)N[C@@H](Cc1ccccc1)C(=O)N[C@@H](Cc1c[nH]c2ccccc12)C(=O)N[C@@H](CCSC)C(=O)NCC(=O)O [compound 14] (H-MSRMWFLISFWMG-OH) |  | 98 |
| < 7.5 |  | 1.66 | 0.4 to 1 | CC[C@H](C)[C@H](NC(=O)[C@H](CC(C)C)NC(=O)[C@H](Cc1ccccc1)NC(=O)[C@H](Cc1c[nH]c2ccccc12)NC(=O)[C@@H](N)CCSC)C(=O)N[C@@H](CO)C(=O)N[C@@H](Cc1ccccc1)C(=O)N[C@@H](Cc1c[nH]c2ccccc12)C(=O)NCC(=O)O [compound 17] (H-MWFLISFWG-OH) |  | 98 |
|  |  |  |  | CC[C@H](C)[C@H](NC(=O)[C@H](CC(C)C)NC(=O)[C@@H](NC(=O)[C@H](Cc1c[nH]c2ccccc12)NC(=O)[C@H](CCSC)N(C)C)[C@@H](C)CC)C(=O)N[C@@H](CO)C(=O)N[C@@H](Cc1ccccc1)C(=O)N[C@@H](Cc1c[nH]c2ccccc12)C(=O)NCC(=O)O [SEQ ID NO: 264] (HELM PEPTIDE1{[CSCC[C@@H](C(=O)[*:2])N(C)C].W.I.L.I.S.F.W.G}$$$$V2.0) | inhibited cell growth |  |
| < 7.5 |  | 2.34 | 0.4 to 1 | CC[C@H](C)[C@H]1NC(=O)[C@H](CC(C)C)NC(=O)[C@@H](Cc2ccccc2)NC(=O)[C@H](Cc2c[nH]c3ccccc23)NC(=O)[C@@H](CCSC)NC(=O)CCCCCCCCCCCNC(=O)C[C@@H](C(=O)O)NC(=O)[C@H](Cc2c[nH]c3ccccc23)NC(=O)[C@@H](C)NC(=O)[C@@H](CS)NC1=O [compound 193] (HELM PEPTIDE1{[O=C(CCCCCCCCCCCN[*:1])[*:2]].[dM].W.[dF].L.[CC[C@H](C)[C@@H](N[*:1])C(=O)[*:2]].[dC].[dA].W.D}$PEPTIDE1,PEPTIDE1,1:R1-10:R3$$$V2.0) |  | 96.6 |
| > 30 |  |  | > 30 | CC[C@H](C)[C@@H]1NC(=O)[C@H](CO)NC(=O)[C@H](CCC(N)=O)NC(=O)[C@H](C)N(C)C(=O)[C@@H](N)CCCCNC(=O)CNC(=O)[C@H](Cc2c[nH]c3ccccc23)NC(=O)[C@H](C(C)C)NC(=O)[C@H](CCCNC(=N)N)NC(=O)[C@H](CCC(N)=O)NC(=O)[C@H](C(C)C)NC(=O)[C@H](Cc2c[nH]cn2)NC(=O)[C@H](CCC(=O)O)NC(=O)[C@H](CC(=O)O)NC(=O)[C@H](CC(C)C)NC1=O [compound 19] (HELM PEPTIDE1{K.[meA].Q.S.I.L.D.E.H.V.Q.R.V.W.G}$PEPTIDE1,PEPTIDE1,1:R3-15:R2$$$V2.0; bridges inferred) |  | 104 |
